From patent publication US20190351012A1, “TARGETING OF INTERFERON-STIMULATED GENE EXPRESSION TO TREAT INTERFERONOPATHIES” (New York University, priority 2018, published 2019)

Legend:
[1] = tested on: BRD4 recruitment sites; experiment: Global ChIP-Seq for BRD4 recruitment; type: cell-based, human; details: combined IFN and TSA treatment
Protocol: To directly assess the effect of IFN and HDAC inhibition on BRD4 recruitment, we assayed the presence of BRD4 at ISG promoters by ChIP. BRD4 was recruited to three typical ISG promoters after 1 h of IFN stimulation. Importantly, this recruitment was abrogated by TSA, and, by JQ-1 (FIG. 5F). We also performed global ChIP-Seq for BRD4 recruitment.
ChIP-Seq libraries were made using the KAPA Hyper Prep kit (Roche, KK8504) using 25 ng of DNA per sample, according to the manufacturer's protocol for end repair and A-tailing. For adapter ligation, 8-nt multiplexing IDT (Integrated DNA Technologies) adapters (5 μM) were used. […] Libraries were sequenced on an Illumina HiSeq 4000 instrument, using a single read 50 protocol; 8 samples were pooled in one lane of a high output single read flow cell. […]
ChIP-Seq data analysis was carried out using the HiC-Bench pipeline (Lazaris et al., 2017, BMC Genomics 18:22). GenomicTools (Tsirigos et al., 2012, Bioinformatics 28:282-283), SAMtools (Li et al., 2009, Bioinformatics 25:2078-2079), DeepTools (Ramirez et al., 2016, Nucleic Acids Res. 44:W160-165), BEDTools (Quinlan and Hall, 2010, Bioinformatics 26:841-842), BigBed Tools (Kent et al., 2010, Bioinformatics 26:2204-2207), Picard Tools (https://broadinstitute.github.io/picard/), and R (https://www.R-project.org/) were used to analyze the sequenced reads and to check the quality of alignment. […]

[2] = tested on: p21^Cip1/wAF1 expression in HeLa cells; experiment: p21 Cip1/WAF1 expression in HeLa cells, real-time RT-PCR (control for HDAC inhibition); type: cell-based, human; details: IFN-α 6 h, FIG. 1B
Protocol: FIG. 1. Class I HDAC mediates ISG expression. (A, B) HeLa cells were treated with IFN-α for 6 h in the absence or presence of increasing concentrations of Romidepsin or TSA, as indicated. RNA was quantified by real-time RT-PCR for ISG54 and p21^wAF1/Cip1 expression, normalized to GAPDH, and represented as fold induction over untreated cells. (C) HeLa cells were treated with IFN-α for 6 h in the absence or presence of increasing concentrations of romidepsin, RGFP966, or RGFP233, as indicated. RNA was quantified by real-time RT-PCR for IRF9 expression, normalized to GAPDH and represented as fold induction over untreated cells. HEK293 cells were transfected with siRNA against HDAC1, HDAC2, or E2F4 separately (D) or with a combination of HDAC1 and HDAC2 targeting oligonucleotides (E) and cells were stimulated with IFN-α for 6 h (α) in the presence (αT) or absence of TSA, as indicated. Whole cell extracts were analyzed for expression of the indicated proteins by western blotting (left panels). ISG54 expression was quantified by real-time RT-PCR, and represented as fold induction over untreated cells (right panels). (F) HEK293T cells were transfected with pcDNA3 (Ctl), HDAC1, or HDAC2 expression constructs, and ISG54 expression was quantified after stimulation with IFN-α for 10 h. […] Nuclear extracts were analyzed for expression of Sin3B by western blotting (middle panels). […]

Compound: CC(/C=C/C(=O)NO)=C\[C@@H](C)C(=O)c1ccc(N(C)C)cc1 [TSA, Trichostatin A]
- sites of IFN-dependent BRD4 recruitment (366 detected) abrogated [1]: all by 4 of which were abrogated
- p21 Cip1/WAF1 expression [2]: led to p21^Cip1/wAF1 expression
